# Source: PMC7203153, “Rational identification and characterisation of peptide ligands for targeting polysialic acid” (Scientific Reports, 2020)
# Marks after values point to notes of the source that are not given here. Where a SMILES comes first, the peptide text is derived from it.
# Legend:
# [1] = FA assay with chondroitin sulphate A; settings: FA assay as for peptide–PSA; triplicate measurements; read-out: KD for binding to CS-A
# Method: (§1) a Neu5Ac concentration (µM) b Neu5Ac concentration (µM) c CS-A concentration (µM)
# (§2) Supplementary Figure S4. (a–b) Interaction of I-P24 and I-P264 with Neu5Ac as asses sed by fluorescence anisotropy (FA) titrations in the (a) absence or (b ) presence of 500 µM P S A.
# (§3) For a given volume, the highest concentration tested (150 mM) is approximately mass […]
# (§4) equivalent to 1.5 mM PSA. […]
# (§5) except for a small decrease in anisotropy at the highest concentrations of Neu 5Ac, indicating specific peptide binding to PSA. Error bars represent standard deviations from two independent experiments (0.15–15000 µM), with triplicate intra-as say measurements (0.15–150000 µM) .
# (§6) (c) FA assay for binding of I-P24 and I-P264 to chondroitin sulphate A (CS-A). […] Anisotropies were determined from triplicate measurements (error bars excluded for clarity). […]
# (§7) Asse ssment of selective binding of peptides with the FA assay is only presented in the context of alternative glycans as proof-of-principle above. However, given the comparatively lower sensitivity of microarray screening, FA may be employed for quantifying affinity in various buffers to asses s the effects of various ions, if any, on PSA binding. […]
# (§8) (also on this page, place not known: Assessment assess assessed (b) Neu5Ac, PSA. intra-assay µM). assessment experiments, 5Ac (µM)a cNeu5Ac Anisotropy (mA) Anisotropy (mA) Anisotropy (mA)) […]
# [2] = FA assay with Neu5Ac; type: binding; settings: absence of PSA; Neu5Ac up to 150 mM; PBS pH 7.4
# Method: as §1, §2, §3, §4, §5, §6, §7, §8
# [3] = Peptide microarray affinity screening against α-2,8-PSA (colominic acid); type: binding, Escherichia coli; settings: 10 μM CA
# Method: (§9) Peptide library synthesis, microarray preparation, and microarray screening were performed as described previously[25] with the following specifications. Siglec-related sequences were N-terminally acetylated to match the charge of the corresponding protein fragment. All peptides were printed in triplicate (60 nL spots), and each initial affinity screening was carried out at least three times. Screening was conducted with 10 μM colominic acid (CA; 5 mL per microarray), the Escherichia coli homolog of α-2,8-PSA identical in structure to human-derived PSA[67], and with antibody-based chemiluminescent detection of CA. For selectivity screening, microarrays were challenged with 10 μM CA with 0, 0.1, 1, and 10 μM α-2,8/9-PSA in separate conditions (5 mL total volume each), where molar concentrations were based on molecular weight estimation of synthesized 2,8/9-PSA (details on α-2,8/9-PSA production, purification, and analysis are provided in Supplementary Information). Selectivity screening with monomeric sialic acid was conducted with mass and molar equivalents of N-acetylneuraminic acid (Rose Scientific, Ltd.) along with 10 μM CA (5 mL total volume each). The mass equivalent amount of sialic acid (specifically, 970 μM sialic acid for a given volume of 10 μM CA) was calculated for CA of an average degree of polymerization of 100. For study of pH-dependent binding, affinity screening with CA was performed using PBS buffers of pH 6.0, 7.0, 7.4, and 8.0 (10 mM phosphate, 100 mM NaCl). The impact of NaCl on peptide binding was assessed at pH 7.4 with 0, 100, and 200 mM NaCl.
# Microarray image and data analysis was performed as described. […] Of the triplicate experiments used to generate mean microarray affinity intensities in standard conditions (within each of which 762 peptides were represented in triplicate), 225 out of 762 values in one of these three experiments were derived from raw data previously reported, but were alternatively analysed as stated. Peptide isoelectric points were calculated with the EMBOSS iep program.
# [4] = Competitive microarray selectivity screening with α-2,8/9-PSA; type: binding, Escherichia coli; settings: 10% competing α-2,8/9-PSA
# Method: Competitive microarray screening with α-2,8/9-PSA was conducted in order to assess selective binding of peptides to α-2,8-PSA. The definition of percent selectivity at 10% competing glycan was applied to enable selectivity comparisons amongst a larger set of peptides[25] […] However, the use of an isomeric polymer is a more stringent assessment of selectivity; here, selective binding is guided by three-dimensional conformation and not additionally by differences in functional groups.
# as §9, with “NaCl. […]” for “NaCl.”
smiles,measurement,setting,value
CC(=O)N[C@@H](Cc1ccccc1)C(=O)N[C@@H](CCCCN)C(=O)NCC(=O)N[C@@H](CCCNC(=N)N)C(=O)N[C@H](C(=O)N[C@@H](CO)C(=O)N1CCC[C@H]1C(=O)N[C@@H](CCCCN)C(=O)N[C@H](C(=O)NCC(=O)N[C@@H](C)C(=O)N1CCC[C@H]1C(=O)N[C@H](C(=O)N[C@@H](C)C(=O)N[C@H](C(N)=O)[C@@H](C)O)C(C)C)[C@@H](C)O)[C@@H](C)O [I-P24] (Ac-FKGRTSPKTGAPVAT-NH2),Kd,[1],> 1 mM
same,binding to Neu5Ac by FA titration,[2],minimal
same,change in microarray binding with 200 mM vs 100 mM NaCl,[3]; pH 7.4,did not display any change in binding
same,microarray binding to PSA without NaCl,"[3]; pH 7.4, 0 mM NaCl",detectable binding
same,microarray binding intensity (rank within library),"[3]; 762-peptide library, three independent screens, triplicate measurements",top 2%
same,selectivity mark in Table 1,[4],I-P24* (Peptides with selectivity >80%)
